Laboratory results published in patent publication US7282593B2, “Withanamide and withanolide compositions and method of use thereof” (Board of Trustees of Michigan State University, priority 2003, dated 2007).

test system: lipid peroxidation in large unilamellar vesicles (LUVs); assay: Inhibition of lipid peroxidation in large unilamellar vesicles (liposome) model system; conditions: at 0.5 μg/mL; vs DMSO control at 21 min
Method: Fluorescence intensity was monitored for 21 minutes at intervals of 3 minutes. The percentage of inhibition represented was calculated with respect to DMSO control at 21 min. The concentrations of compounds tested were 1-3, 5 and 9 at 1 μg/mL; 4, 6-8 at 0.5 μg/mL; 15 at 100 μg/mL; 16 at 50 μg/mL; 17 at 10 μg/mL. Commercial antioxidants BHA, BHT and TBHQ were tested at 1 μg/mL. Data represented indicates the mean ± one standard deviation (n=2).
Compounds tested were 10 and 13 at 100 μg/mL; 12 and 11 were at 10 and 50 μg/mL, respectively. Data represented indicates the mean ± one standard deviation (n=2).
The liposome suspension was prepared by mixing the phospholipid 1-stearoyl-2-linoleoyl-sn-glycero-3-phosphocoline (SLPC) and a fluorescence probe [3-[p-(6-phenyl)-1,3,5-hexatrienylph-enylpropionic acid (DPH-PA). The final assay volume was 2 mL and consisted HEPES (100 μL), 1M NaCl (200 μL), N2-sparged water (1.64 ml), test sample or DMSO (20 μL) and liposome suspension (20 μL). The peroxidation was initiated by the addition of 20 μl of FeCl2. […] The fluorescence was monitored at 0, 1, 3 and every 3 min up to 21 min using a Turner Model 450 Digital fluorometer. The decrease in fluorescence intensity over the time (21 min) indicated the rate of peroxidation. The percentage of lipid peroxidation was calculated with respect to DMSO solvent control. Stock solutions of the samples were prepared at 100 μg/ml and diluted further for the assay.

Row | Compound | inhibition of lipid peroxidation
1 | Withanamide F [Compound 6] | 85%
2 | Withanamide G [Compound 7] | 82%
3 | Withanamide H [Compound 8] | 90%

same assay, conditions: at 1 μg/mL; vs DMSO control at 21 min

Row | Compound | inhibition of lipid peroxidation
4 | COc1ccc(O)c(C(C)(C)C)c1 [BHA, butylated hydroxyanisole, reference compound] | 80%
5 | Cc1cc(C(C)(C)C)c(O)c(C(C)(C)C)c1 [BHT, butylated hydroxytoluene, reference compound] | 81%
6 | CC(C)(C)c1cc(O)ccc1O [TBHQ, tert-butylhydroquinone, reference compound] | 85%
7 | Withanamide A [Compound 1] | 98%
8 | Withanamide B [Compound 2] | 93%
9 | Withanamide C [Compound 3] | 79%
10 | Withanamide D [Compound 4] | 94%
11 | Withanamide E [Compound 5] | 81%
12 | Withanamide I [Compound 9] | 86%

same assay, conditions: at 10 μg/mL; vs DMSO control at 21 min

Row | Compound | inhibition of lipid peroxidation
13 | CC1=C(C)C(=O)O[C@@H]([C@@H](C)[C@H]2CC[C@H]3[C@@H]4CC=C5C[C@@H](O[C@@H]6O[C@H](CO[C@@H]7O[C@H](CO)[C@@H](O)[C@H](O)[C@H]7O)[C@@H](O)[C@H](O)[C@H]6O)C[C@H](O)[C@]5(C)[C@H]4CC[C@]23C)C1 [Compound 12, Withanoside V] | 82%
14 | Cl.NCCc1c[nH]c2ccc(O)cc12 [Compound 16, serotonine, reference compound] | 44%

same assay, conditions: at 50 μg/mL; vs DMSO control at 21 min

Row | Compound | inhibition of lipid peroxidation
15 | CC1=C(C)C(=O)O[C@@H]([C@](C)(O)[C@H]2CC[C@H]3[C@@H]4CC=C5C[C@@H](O[C@@H]6O[C@H](CO[C@@H]7O[C@H](CO)[C@@H](O)[C@H](O)[C@H]7O)[C@@H](O)[C@H](O)[C@H]6O)C[C@H](O)[C@]5(C)[C@H]4CC[C@]23C)C1 [Compound 11, withanoside VI] | 86%
16 | COc1ccc2[nH]cc(CCN)c2c1 [Compound 15, 5-methoxyserotonine, reference compound] | 30%

same assay, conditions: at 100 μg/mL; vs DMSO control at 21 min

Row | Compound | inhibition of lipid peroxidation
17 | CC1CC([C@](C)(O)C2CCC3C4CC=C5C[C@@H](OC6OC(COC7OC(CO)C(O)C(O)C7O)C(O)C(O)C6O)C[C@H](O)C5(C)C4CCC32C)OC(=O)C1C (stereo partly drawn) [Compound 10, 23,24-Dihydrowithanolide VI] | 84%
18 | CC1=C(CO)C(=O)O[C@@H]([C@@H](C)[C@H]2CC[C@H]3[C@@H]4CC=C5C[C@@H](O[C@@H]6O[C@H](CO[C@@H]7O[C@H](CO)[C@@H](O)[C@H](O)[C@H]7O)[C@@H](O)[C@H](O)[C@H]6O)C[C@H](O)[C@]5(C)[C@H]4CC[C@]23C)C1 [Compound 13, withanoside IV] | 25%
19 | NCCc1c[nH]c2ccccc12 [Compound 14, tryptamine, reference compound] | 40%

same assay, conditions: at 10 ppm

Row | Compound | inhibition of lipid peroxidation
20 | CC1=C(C)C(=O)O[C@@H]([C@@H](C)[C@H]2CC[C@H]3[C@@H]4CC=C5C[C@@H](O[C@@H]6O[C@H](CO[C@@H]7O[C@H](CO)[C@@H](O)[C@H](O)[C@H]7O)[C@@H](O)[C@H](O)[C@H]6O)C[C@H](O)[C@]5(C)[C@H]4CC[C@]23C)C1 [Compound 12, Withanoside V] | 82.5%

same assay, conditions: at 50 ppm

Row | Compound | lipid peroxidation inhibitory activity
21 | CC1=C(C)C(=O)O[C@@H]([C@](C)(O)[C@H]2CC[C@H]3[C@@H]4CC=C5C[C@@H](O[C@@H]6O[C@H](CO[C@@H]7O[C@H](CO)[C@@H](O)[C@H](O)[C@H]7O)[C@@H](O)[C@H](O)[C@H]6O)C[C@H](O)[C@]5(C)[C@H]4CC[C@]23C)C1 [Compound 11, withanoside VI] | 86%
